Reference: the NIST ThermoML archive (doi:10.1021/je800842z)
± gives the expanded uncertainty stated by the source.

Tests used:
[1] = refractive index (Na D-line) (dimensionless); conditions: 293.15 K; 101.33 kPa; Liquid; Standard Abbe refractometry
[2] = 293.15 K; 101.33 kPa; Liquid; Pycnometric method

Structure (SMILES) | refractive index [1] | mass density [2]
CCOC(C)=O [ethyl acetate] | 1.3588 ± 0.0004 | 900 ± 1 kg/m3
Cc1ccccc1 [toluene] | 1.4967 ± 0.0004 | 866 ± 1 kg/m3
c1ccccc1 [benzene] | 1.5011 ± 0.0004 | 879 ± 1 kg/m3
